Laboratory results from PMC11404848, “Stenotrophomonas maltophilia uses a c-di-GMP module to sense the mammalian body temperature during infection” (PLOS Pathogens, 2024).

Molecular target: T1, BtsD^Δ(SP-GGDEF)
T1 construct: N-terminal region; signal peptide (1-42) and GGDEF domain (836-1008) deleted; borders derived from printed deletions; expressed in E. coli BL21(DE3), His6 tag kept or GST tag cut
Assay: MicroScale Thermophoresis
Type: binding, Stenotrophomonas maltophilia
Conditions: PBS pH 6.5; protein labelled with Red NHS dye
Source text: MicroScale Thermophoresis on BtsD^Δ(SP-GGDEF) | BtsD^Δ(SP-GGDEF) directly bound with c-di-GMP and Sensor^BtsK

Nc1nc2c(ncn2[C@@H]2O[C@@H]3COP(=O)(O)O[C@H]4[C@@H](O)[C@H](n5cnc6c(=O)[nH]c(N)nc65)O[C@@H]4COP(=O)(O)O[C@H]3[C@H]2O)c(=O)[nH]1 [c-di-GMP]
Kd: 8.72 ± 4.12 µM
